In patent US7728019B2, “Biphenylcarboxamides” (priority 2002, dated 2010):

What was measured:
[1] = logP determination by HPLC on reverse-phase column (C 18), acidic range pH 2.3; type: physicochemical; details: for chromatographic logP: reverse-phase HPLC column (C 18)
Description: The logP values given in Table 1 were determined with EEC Directive 79/831 Annex V.A8 by HPLC (High Performance Liquid Chromatography) on a reverse-phase column (C 18). Temperature: 43° C. Mobile phases for the determination in the acidic range (pH 2.3): 0.1% aqueous phosphoric acid, acetonitrile; linear gradient from 10% acetonitrile to 90% acetonitrile. Calibration was carried out using unbranched alkan-2-ones (having 3 to 16 carbon atoms) with known logP values (determination of the logP values by the retention times using linear interpolation between two successive alkanones).

[2] = test system: Botrytis cinerea; assay: Botrytis test (bean)/protective; type: in vivo; details: 48 h, bean plants, protective, application rate 500 g/ha, evaluation 2 days after inoculation, read-out: Efficacy in %
Description: (§1) To produce a suitable preparation of active compound, 1 part by weight of active compound is mixed with the stated amounts of solvents and emulsifier, and the concentrate is diluted with water to the desired concentration.
To test for protective activity, young plants are sprayed with the preparation of active compound at the stated application rate. After the spray coating has dried on, 2 small pieces of agar colonized by Botrytis cinerea are placed onto each leaf. The inoculated plants are placed in a dark chamber at about 20° C. and 100% relative atmospheric humidity.
2 days after the inoculation, the size of the infected areas on the leaves is evaluated. 0% means an efficacy which corresponds to that of the control, whereas an efficacy of 100% means that no infection is observed.

[3] = test system: Alternaria solani; assay: Alternaria test (tomato)/protective; type: in vivo; details: tomato plants, protective; application rate 750 g/ha; evaluation 7 days after inoculation
Description: (§2) To produce a suitable preparation of active compound, 1 part by weight of active compound is mixed with the stated amounts of solvent and emulsifier, and the concentrate is diluted with water to the desired concentration.
To test for protective activity, young tomato plants are sprayed with the preparation of active compound at the stated application rate. 1 day after the treatment, the plants are inoculated with a spore suspension of Alternaria solani and then remain at 100% relative atmospheric humidity and 20° C. for 24 hours. The plants then remain at 96% relative atmospheric humidity and a temperature of 20° C.
Evaluation is carried out 7 days after the inoculation. 0% means an efficacy which corresponds to that of the control, whereas an efficacy of 100% means that no infection is observed.

[4] = test system: apple scab pathogen Venturia inaequalis; assay: Venturia test (apple)/protective; type: in vivo; details: apple plants, protective; application rate 100 g/ha; evaluation 10 days after inoculation
Description: as §1
To test for protective activity, young plants are sprayed with the preparation of active compound at the stated application rate. After the spray coating has dried on, the plants are inoculated with an aqueous conidia suspension of the apple scab pathogen Venturia inaequalis and then remain in an incubation cabin at about 20° C. and 100% relative atmospheric humidity for 1 day.
The plants are then placed in a greenhouse at about 21° C. and a relative atmospheric humidity of about 90%.
(§3) Evaluation is carried out 10 days after the inoculation. 0% means an efficacy which corresponds to that of the control, whereas an efficacy of 100% means that no infection is observed.

[5] = test system: Puccinia recondita; assay: Puccinia test (wheat)/protective; type: in vivo; details: 240 h, wheat plants, protective, application rate 500 g/ha, evaluation 10 days after inoculation, read-out: Efficacy in %
Description: as §2
To test for protective activity, young plants are inoculated with a spore suspension of Puccinia recondita in a 0.1% strength aqueous agar solution. After the spray coating has dried on, the plants are sprayed with the preparation of active compound at the stated application rate. The plants remain in an incubation cabin at 20° C. and 100% relative atmospheric humidity for 24 hours.
The plants are then placed in a greenhouse at a temperature of about 20° C. and a relative atmospheric humidity of 80% to promote the development of rust pustules.
as §3

[6] = test system: eggs of the diamond back moth (Plutella xylostella); assay: Plutella test; type: in vivo; details: active compound concentration 1000 ppm, on synthetic feed
Description: To produce a suitable preparation of active compound, 1 part by weight of active compound is mixed with the stated amount of solvent, and the concentrate is diluted with methanol to the desired concentrations.
A stated amount of the preparation of active compound of the desired concentration is pipetted onto a standardized amount of synthetic feed. After the methanol has evaporated, about 200-300 eggs of the diamond back moth (Plutella xylostella) are placed onto the feed.
After the desired period of time, the kill of the eggs in % is determined. 100% means that all animals have been killed; 0% means that none of the animals have been killed.

[7] = HPLC, C 18 reverse-phase, 43° C.

## Cc1nc(C(F)(F)F)c(C(=O)Nc2ccccc2-c2ccc(/C=N\OCC3CC3)cc2)s1 [Compound 2]
[1]; [7]
  chromatographic logP: 4.16
[2]
  pest or weed control at 500 g/ha: 98%
[3]
  Efficacy in %: 90%

## O=C(Nc1ccccc1-c1ccc(/C=N\OCC2CC2)cc1)c1cccnc1Cl [Compound 3]
[1]; [7]
  chromatographic logP: 3.57
[2]
  pest or weed control at 500 g/ha: 95%

## Cn1cc(C(=O)Nc2ccccc2-c2ccc(/C=N\OCC3CC3)cc2)c(C(F)(F)F)n1 [Compound 4]
[1]; [7]
  chromatographic logP: 3.77
[4]
  Efficacy in %: 91%

## C=CCO/N=C\c1ccc(-c2ccccc2NC(=O)c2sc(C)nc2C(F)(F)F)cc1 [Compound 5]
[1]; [7]
  chromatographic logP: 3.91
[4]
  Efficacy in %: 100%
[2]
  pest or weed control at 500 g/ha: 83%
[3]
  Efficacy in %: 100%

## C=CCO/N=C\c1ccc(-c2ccccc2NC(=O)c2c(C)nn(C)c2F)cc1 [Compound 6]
[1]; [7]
  chromatographic logP: 3.47
[4]
  Efficacy in %: 97%
[2]
  pest or weed control at 500 g/ha: 98%
[3]
  Efficacy in %: 100%
[5]
  pest or weed control at 500 g/ha: 100%

## Cn1cc(C(=O)Nc2ccccc2-c2ccc(/C=N\OCC3CC3)cc2)c(C(F)F)n1 [Compound 7]
[1]; [7]
  chromatographic logP: 3.53
[4]
  Efficacy in %: 100%
[2]
  pest or weed control at 500 g/ha: 96%
[5]
  pest or weed control at 500 g/ha: 100%

## Cc1nc(C(F)F)c(C(=O)Nc2ccccc2-c2ccc(/C=N\OCC3CC3)cc2)s1 [Compound 8]
[1]; [7]
  chromatographic logP: 3.87
[4]
  Efficacy in %: 100%
[2]
  pest or weed control at 500 g/ha: 85%

## C=CCO/N=C/c1ccc(-c2ccccc2NC(=O)c2sc(C)nc2C(F)F)cc1 [Compound 9, N-[4′-(allyloxyimino-methyl)-biphenyl-2-yl]-4-difluoromethyl-2-methylthiazole-5-carboxamide]
[1]; [7]
  chromatographic logP: 3.65
[4]
  Efficacy in %: 100%
[2]
  pest or weed control at 500 g/ha: 95%

## C=CCO/N=C\c1ccc(-c2ccccc2NC(=O)c2cn(C)nc2C(F)F)cc1 [Compound 10]
[1]; [7]
  chromatographic logP: 3.32
[4]
  Efficacy in %: 100%
[2]
  pest or weed control at 500 g/ha: 95%
[5]
  pest or weed control at 500 g/ha: 100%

## C=CCO/N=C\c1ccc(-c2ccccc2NC(=O)c2cn(C)nc2C(F)(F)F)cc1 [Compound 11]
[1]; [7]
  chromatographic logP: 3.53
[3]
  Efficacy in %: 100%

## C=CCO/N=C\c1ccc(-c2ccccc2NC(=O)c2cccnc2Cl)cc1 [Compound 12]
[1]; [7]
  chromatographic logP: 3.3
[3]
  Efficacy in %: 100%

## C=CCO/N=C(/C)c1ccc(-c2ccccc2NC(=O)c2sc(C)nc2C(F)F)cc1 [Compound 15]
[1]; [7]
  chromatographic logP: 3.92
[5]
  pest or weed control at 500 g/ha: 100%
[6]
  Kill rate in % after 7 d: 95%

## CC1=C(C(=O)Nc2ccccc2-c2ccc(/C(C)=N\OCC3CC3)cc2)SCCO1 [Compound 22]
[1]; [7]
  chromatographic logP: 4.69
[6]
  Kill rate in % after 7 d: 95%

## CC#CCO/N=C(/C)c1ccc(-c2ccccc2NC(=O)c2cn(C)nc2C(F)(F)F)cc1 [Compound 40]
[1]; [7]
  chromatographic logP: 3.67
[5]
  pest or weed control at 500 g/ha: 100%

## CC#CCO/N=C(/C)c1ccc(-c2ccccc2NC(=O)c2cn(C)nc2C)cc1 [Compound 55]
[1]; [7]
  chromatographic logP: 3.06
[5]
  pest or weed control at 500 g/ha: 100%

## C#CCO/N=C(/C)c1ccc(-c2ccccc2NC(=O)c2sc(C)nc2C(F)F)cc1 [Compound 69]
[1]; [7]
  chromatographic logP: 3.45
[5]
  pest or weed control at 500 g/ha: 100%

## C#CCO/N=C(/C)c1ccc(-c2ccccc2NC(=O)c2cn(C)nc2C(F)F)cc1 [Compound 72]
[1]; [7]
  chromatographic logP: 3.14
[5]
  pest or weed control at 500 g/ha: 100%

## C#CCO/N=C(\C)c1ccc(-c2ccccc2NC(=O)c2ccccc2C(F)(F)F)cc1 [Compound 73]
[1]; [7]
  logP (pH 2.3): 3.83

## C#CCO/N=C(\C)c1ccc(-c2ccccc2NC(=O)C2=C(C)OCCS2)cc1 [Compound 74]
[1]; [7]
  logP (pH 2.3): 3.81

## C#CCO/N=C(\C)c1ccc(-c2ccccc2NC(=O)c2cn(C)cc2C(F)(F)F)cc1 [Compound 75]
[1]; [7]
  logP (pH 2.3): 3.6

## C#CCO/N=C(\C)c1ccc(-c2ccccc2NC(=O)c2ccoc2C)cc1 [Compound 77]
[1]; [7]
  logP (pH 2.3): 3.59

## C#CCO/N=C(\C)c1ccc(-c2ccccc2NC(=O)c2cn(C)nc2C)cc1 [Compound 78]
[1]; [7]
  logP (pH 2.3): 2.75

## C#CCO/N=C(\C)c1ccc(-c2ccccc2NC(=O)c2ccccc2I)cc1 [Compound 79]
[1]; [7]
  logP (pH 2.3): 3.81

## C#CCO/N=C(\C)c1ccc(-c2ccccc2NC(=O)c2ccccc2Br)cc1 [Compound 80]
[1]; [7]
  logP (pH 2.3): 3.74

## C#CCO/N=C(\C)c1ccc(-c2ccccc2NC(=O)c2ccccc2Cl)cc1 [Compound 81]
[1]; [7]
  logP (pH 2.3): 3.73

## C#CCO/N=C/c1ccc(-c2ccccc2NC(=O)c2cccnc2Cl)cc1 [Compound 82]
[1]; [7]
  logP (pH 2.3): 2.92

## C#CCO/N=C/c1ccc(-c2ccccc2NC(=O)c2sc(C)nc2C(F)(F)F)cc1 [Compound 83]
[1]; [7]
  logP (pH 2.3): 3.48

## CC(=O)c1ccc(-c2ccccc2NC(=O)c2cccnc2Cl)cc1 [VIII-1, N-(4′-acetyl-biphenyl-2-yl)-2-chloronicotinamide]
[1]
  chromatographic logP: 2.12

## CC(=O)c1ccc(-c2ccccc2N)cc1 [XIV-1, 1-(2′-aminobiphenyl-4-yl)ethanone]
[1]
  chromatographic logP: 1.8
